# Entries after “also recorded” stand apart in the source; their conditions may differ. No end group written: not given here.
# Key:
# hMRP4 = target: T1, hMRP4 (Homo sapiens, UniProt O15439); experiment: MST binding assay, hMRP4; conditions: MST, three independent measurements
# T1 sequence (O15439 1-1325): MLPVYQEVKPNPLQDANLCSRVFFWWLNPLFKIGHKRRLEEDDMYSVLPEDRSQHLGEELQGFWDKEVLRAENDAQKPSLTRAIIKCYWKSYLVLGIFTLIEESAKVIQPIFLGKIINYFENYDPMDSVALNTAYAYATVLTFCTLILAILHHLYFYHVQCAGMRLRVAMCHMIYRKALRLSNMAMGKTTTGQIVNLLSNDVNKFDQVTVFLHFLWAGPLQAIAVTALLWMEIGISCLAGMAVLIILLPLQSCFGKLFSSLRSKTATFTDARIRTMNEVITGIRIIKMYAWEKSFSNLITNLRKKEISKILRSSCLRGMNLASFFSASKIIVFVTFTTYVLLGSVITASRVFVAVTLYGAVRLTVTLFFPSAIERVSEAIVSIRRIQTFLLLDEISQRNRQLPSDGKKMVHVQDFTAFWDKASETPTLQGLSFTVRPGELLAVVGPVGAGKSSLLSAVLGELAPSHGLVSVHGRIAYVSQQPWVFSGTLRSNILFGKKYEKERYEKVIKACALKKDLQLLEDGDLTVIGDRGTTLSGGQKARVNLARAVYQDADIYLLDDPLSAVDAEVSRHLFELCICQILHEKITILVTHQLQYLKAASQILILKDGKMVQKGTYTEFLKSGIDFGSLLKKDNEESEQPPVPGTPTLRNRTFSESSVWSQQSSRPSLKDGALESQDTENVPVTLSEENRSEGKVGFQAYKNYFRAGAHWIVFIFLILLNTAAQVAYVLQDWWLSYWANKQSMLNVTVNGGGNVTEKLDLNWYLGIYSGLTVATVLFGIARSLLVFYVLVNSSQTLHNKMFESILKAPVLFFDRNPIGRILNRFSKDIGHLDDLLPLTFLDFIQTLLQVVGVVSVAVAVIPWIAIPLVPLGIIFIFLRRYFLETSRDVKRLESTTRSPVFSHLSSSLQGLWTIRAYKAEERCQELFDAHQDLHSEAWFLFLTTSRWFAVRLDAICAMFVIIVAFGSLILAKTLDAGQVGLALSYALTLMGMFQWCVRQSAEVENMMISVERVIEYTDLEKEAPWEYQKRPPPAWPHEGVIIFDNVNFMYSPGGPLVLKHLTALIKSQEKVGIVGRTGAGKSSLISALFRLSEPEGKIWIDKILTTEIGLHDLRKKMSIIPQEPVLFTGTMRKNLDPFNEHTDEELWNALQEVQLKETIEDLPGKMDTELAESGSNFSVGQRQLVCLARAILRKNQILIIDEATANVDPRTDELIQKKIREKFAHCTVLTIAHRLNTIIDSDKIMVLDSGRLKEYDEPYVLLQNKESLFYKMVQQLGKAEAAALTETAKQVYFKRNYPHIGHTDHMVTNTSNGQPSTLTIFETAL
# hMRP5-Δ1-94 = target: T2, hMRP5-Δ1-94 (Homo sapiens, UniProt O15440); experiment: cryo-EM of the reconstituted peptide complex; format: binding; conditions: peptide and hMRP5-Δ1-94 at 2:1 ratio, on ice, 1 h; inward-open complex
# T2 construct: The codon-optimized full-length human ABCC5 gene encoding the MRP5 protein (UniProt ID: O15440); 8xHis (C); 2xstrep (C); made in house; host or cells: HEK293F
# T2 sequence (O15440 95-1437 limits assumed, stated change not applied): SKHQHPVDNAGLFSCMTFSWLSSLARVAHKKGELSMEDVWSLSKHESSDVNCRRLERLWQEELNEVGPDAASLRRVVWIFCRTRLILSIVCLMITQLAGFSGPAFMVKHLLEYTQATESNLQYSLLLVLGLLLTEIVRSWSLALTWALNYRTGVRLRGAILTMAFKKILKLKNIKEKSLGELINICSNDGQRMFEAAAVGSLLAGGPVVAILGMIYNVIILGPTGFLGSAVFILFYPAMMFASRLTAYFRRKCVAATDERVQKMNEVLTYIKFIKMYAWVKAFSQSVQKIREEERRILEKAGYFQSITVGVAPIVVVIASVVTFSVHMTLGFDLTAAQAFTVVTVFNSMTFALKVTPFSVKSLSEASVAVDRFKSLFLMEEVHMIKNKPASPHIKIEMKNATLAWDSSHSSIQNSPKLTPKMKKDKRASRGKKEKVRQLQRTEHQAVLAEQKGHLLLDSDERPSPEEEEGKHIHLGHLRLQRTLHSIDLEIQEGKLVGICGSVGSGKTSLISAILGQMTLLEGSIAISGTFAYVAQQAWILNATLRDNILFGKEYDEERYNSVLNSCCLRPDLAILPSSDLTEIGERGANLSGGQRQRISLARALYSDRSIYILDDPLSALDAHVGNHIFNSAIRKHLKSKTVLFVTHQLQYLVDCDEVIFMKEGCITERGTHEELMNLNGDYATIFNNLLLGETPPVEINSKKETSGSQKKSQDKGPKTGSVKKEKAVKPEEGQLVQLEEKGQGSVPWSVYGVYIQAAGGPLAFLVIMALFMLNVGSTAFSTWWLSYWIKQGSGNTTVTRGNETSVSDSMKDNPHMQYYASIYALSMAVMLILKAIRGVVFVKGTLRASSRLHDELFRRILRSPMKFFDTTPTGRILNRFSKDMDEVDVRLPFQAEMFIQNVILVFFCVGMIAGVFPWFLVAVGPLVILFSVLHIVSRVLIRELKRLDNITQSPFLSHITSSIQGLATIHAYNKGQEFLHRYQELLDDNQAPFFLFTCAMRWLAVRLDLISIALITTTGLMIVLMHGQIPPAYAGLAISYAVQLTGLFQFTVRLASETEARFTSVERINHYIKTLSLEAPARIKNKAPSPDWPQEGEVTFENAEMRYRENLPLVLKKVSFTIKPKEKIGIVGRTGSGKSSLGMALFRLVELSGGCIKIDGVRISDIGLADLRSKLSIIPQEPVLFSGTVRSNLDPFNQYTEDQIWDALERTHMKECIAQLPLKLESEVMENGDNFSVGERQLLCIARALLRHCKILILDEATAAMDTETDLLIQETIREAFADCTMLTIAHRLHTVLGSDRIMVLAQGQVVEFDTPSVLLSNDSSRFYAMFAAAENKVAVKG
# Method: To assess if D35C-E75C can structurally block the transport pathway, we incubated it with hMRP5-Δ1-94 at a 2:1 ratio for in vitro reconstitution. The resulting high-resolution structure of the reconstituted complex maintained an inward-open conformation with both NBDs separated (Fig. 4c and Supplementary Fig. 7a–d). […] Given its ability to effectively occlude the binding pocket, we termed the D35C-E75C peptide MRP5 potential peptide inhibitor (M5PI).
# Freshly purified MRP5 protein was concentrated to ~5 mg/ml. Then, 5 μl proteins were added to the freshly glow-discharged (0.39 mBar air, 15 mA, 50 s) holey carbon grid (Quantifoil Au R1.2/1.3, 300 mesh). The grids were plunge-frozen in liquid ethane using an FEI Vitrobot Mark IV (Thermo Fisher Scientific) under the following conditions: waiting time, 11 s; blot time, 4 s; blot force, −2; temperature, 10 °C; and humidity, 100%. Next, the grids were transferred to and stored in liquid nitrogen until data acquisition. For the peptide M5PI-bound complex, the peptide and hMRP5-Δ1-94 were incubated together on ice at a ratio of 2:1 for 1 h before vitrification. […]
# The single-particle analysis procedures for all states are summarized in the supplementary information (Supplementary Figs. 1, 2, 4, 5, 7 and 8). […] The overall resolution of the final map was determined by the 0.143 criterion of the gold-standard Fourier shell correlation. […]
sequence,measurement,setting,value
CSKFRRTRPLECQDALETAARAEGLSLDASMHSQLRILDEC (cysteines drawn unpaired) [M5PI],"binding affinity to hMRP4, in words",hMRP4,not detectable; also recorded: could not be estimated through MST test; also recorded: rarely
same,EM density of bound peptide,hMRP5-Δ1-94,clear EM density for the bound D35C-E75C peptide in the central cavity
